22 molecules from patent US20170275298A1, “INHIBITORS OF THE RENAL OUTER MEDULLARY POTASSIUM CHANNEL” (Merck Sharp & Dohme Corp., priority 2014, published 2017) can be followed below.

The target of the assay is T1, hROMK (hKir1.1) (Homo sapiens, UniProt P48048).
T1 construct: expressed in transfected cells
T1 sequence (P48048 1-391): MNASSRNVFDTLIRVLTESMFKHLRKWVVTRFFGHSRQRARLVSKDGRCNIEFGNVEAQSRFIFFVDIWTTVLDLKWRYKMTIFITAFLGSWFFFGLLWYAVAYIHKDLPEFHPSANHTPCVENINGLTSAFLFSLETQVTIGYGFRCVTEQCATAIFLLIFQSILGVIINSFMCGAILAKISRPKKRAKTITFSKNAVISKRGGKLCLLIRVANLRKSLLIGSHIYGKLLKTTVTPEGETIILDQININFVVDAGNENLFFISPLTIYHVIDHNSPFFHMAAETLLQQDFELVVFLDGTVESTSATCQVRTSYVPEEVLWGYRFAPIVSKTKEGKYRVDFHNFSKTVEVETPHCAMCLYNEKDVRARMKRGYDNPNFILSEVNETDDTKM
Put plainly: Thallium Flux Assay (ROMK channel functional thallium flux assay). In kind it is cell-based. As to conditions: HEK293 cells stably expressing hROMK (hKir1.1); FluxOR thallium flux, FLIPR-Tetra, 30 min compound incubation; read-out: ROMK TI IC50. As to the method: The following Thallium Flux Assay was performed on each of the final product compounds in the Examples.
HEK293 cells stably expressing hROMK (hKir1.1) were grown at 37° C. in a 10% CO2 humidified incubator in complete growth media: Dulbecco's Modified Eagle Medium supplemented with non-essential amino acids, Penicillin/Streptomycin/Glutamine, G418 and FBS. At >80% confluency, the media was aspirated from the flask and rinsed with 10 mL calcium/magnesium-free PBS. […] To dislodge the cell, the side of the flask was gently banged with one's hand. The cells completely titrated and then the cells were transferred to 25 mL complete media, centrifuged at 1,500 rpm for 6 min followed by resuspension in complete growth media and determine cell concentration. […] Under ideal growth conditions and appropriate tissue culture practices, this cell line is stable for 40-45 passages.
• FluxOR™ Reagent (Component A) • FluxOR™ Assay Buffer (Component B)—10× Concentrate • PowerLoad™ Concentrate (Component C)—100× Concentrate • Probenecid (Component D)—Lyophilized sample is kept at −20° C. Water soluble, 100× after solubilization in 1 mL water. […] Store at 4° C. • Thallium sulfate (Tl2SO4) Concentrate (Component G)—50 mM in water. Store at 4° C. • DMSO (dimethyl sulfoxide, Component H)—1 mL (100%)
Can be stored at room temperature • Stimulant Buffer (prepared at 5× final concentration in 1×FluxOR™ Chloride-Free Buffer): 7.5 mM thallium sulfate and 0.75 mM potassium sulfate (to give a final assay concentration of 3 mM Thallium/0.3 mM potassium). Store at 4° C. when not in use. If kept sterile, this solution is good for months.
The ROMK channel functional thallium flux assay was performed in 384 wells, using the FLIPR-Tetra instrument. HEK-hKir1.1 cells were seeded in Poly-D-Lysine microplates and kept in a 37° C.-10% CO2 incubator overnight. On the day of the experiment, the growth media was replaced with the FluxOR™ reagent loading buffer and incubated, protected from light, at ambient temperature (23-25° C.) for 90 min. The loading buffer was replaced with assay buffer±test compound followed by 30 min incubation at ambient temperature, where the thallium/potassium stimulant was added to the microplate.
1. Seed HEK-hKir1.1 cells (50 μl at 20,000 cells/well) in 384-well PDL coated Microplates 2. Allow cells to adhere overnight in humidified 37° C./10% CO2 incubator 3. Completely remove cell growth media from microplate and replace with 25 μl loading buffer 4. Incubate Microplate at room temperature, protected form light, for 90 min 5. Remove loading buffer and replace with 25 μl 1× Assay Buffer±test compound. 6. Incubate microplate at room temperature, protected from light, for 30 min 7. […] Excitation=400 nm, Emission=460 & 580 nm. Collect data for ˜10 min.
The fluorescence intensity of wells containing 3 μM of a standard control ROMK inhibitor of the present invention was used to define the ROMK-sensitive component of thallium flux. Fluorescence in the presence of test compounds was normalized to control values to provide % fluorescence change.

The structures appear in SMILES notation.

By IC50 is commonly meant the concentration that inhibits the measured activity by half.

`Cn1nc(N2CCC3(CCN(C[C@@H](O)c4cccc(-n5cnnn5)c4)CC3)C2=O)ccc1=O` [Example 96, (S)-8-(2-(3-(1H-tetrazol-1-yl)phenyl)-2-hydroxyethyl)-2-(1-methyl-6-oxo-1,6-dihydropyridazin-3-yl)-2,8-diazaspiro[4.5]decan-1-one]: the 50% inhibitory concentration (IC50) is 702 nM. Then `COc1ccnc(N2CCC3(CCN(C[C@H](O)c4ccc5c(c4C)COC5=O)CC3)CC2)n1` [Example 114, (R)-5-(1-hydroxy-2-(9-(4-methoxypyrimidin-2-yl)-3,9-diazaspiro[5.5]undecan-3-yl)ethyl)-4-methylisobenzofuran-1(3H)-one], with 384 nM; and `Cc1c([C@@H](O)CN2CCC3(CC2)CCN(c2ccns2)C3)ccc2c1COC2=O` [Example 7, (R)-5-(1-hydroxy-2-(2-(isothiazol-5-yl)-2,8-diazaspiro[4.5]decan-8-yl)ethyl)-4-methylisobenzofuran-1(3H)-one], with 149 nM. For `Cc1c(C(O)C(C)N2CCC3(CCN(c4ccc(=O)n(C)n4)C3=O)CC2)ccc2c1COC2=O` [Example 109, 8-41S,2S)-1-hydroxy-1-(4-methyl-1-oxo-1,3-dihydroisobenzofuran-5-yl)propan-2-yl)-2-(1-methyl-6-oxo-1,6-dihydropyridazin-3-yl)-2,8-diazaspiro[4.5]decan-1-one], the IC50 turned out to be 20 nM. Turning to `COC(=O)c1csc(N2CCC3(CCN(C[C@H](O)c4ccc5c(c4C)COC5=O)CC3)CC2)n1` [Example 140, (R)-methyl 2-(9-(2-hydroxy-2-(4-methyl-1-oxo-1,3-dihydroisobenzofuran-5-yl)ethyl)-3,9-diazaspiro[5.5]undecan-3-yl)thiazole-4-carboxylate], the IC50 amounted to 364 nM.

For the molecule `Cc1ccc(N2CCC3(CCN(C[C@H](O)c4ccc5c(c4C)COC5=O)CC3)CC2)nn1` [Example 124, (R)-5-(1-hydroxy-2-(9-(6-methylpyridazin-3-yl)-3,9-diazaspiro[5.5]undecan-3-yl)ethyl)-4-methylisobenzofuran-1(3H)-one], the IC50 is 37.1 nM. Then `Cc1c([C@@H](O)CN2CCC3(CC2)CCN(c2cc(Cl)cnn2)CC3)ccc2c1COC2=O` [Example 131, (R)-5-(2-(9-(5-chloropyridazin-3-yl)-3,9-diazaspiro[5.5]undecan-3-yl)-1-hydroxyethyl)-4-methylisobenzofuran-1(3H)-one], with 23.8 nM. Take `Cc1c([C@@H](O)CN2CCC3(CC2)CCN(c2cccnn2)CC3)ccc2c1COC2=O` [Example 139, (R)-5-(1-hydroxy-2-(9-(pyridazin-3-yl)-3,9-diazaspiro[5.5]undecan-3-yl)ethyl)-4-methylisobenzofuran-1(3H)-one]: the IC50 was found to be 251 nM. Take `CCOc1nccc(N2CCC3(CCN(C[C@H](O)c4ccc5c(c4C)COC5=O)CC3)C2=O)n1` [Example 44, (R)-2-(2-ethoxypyrimidin-4-yl)-8-(2-hydroxy-2-(4-methyl-1-oxo-1,3-dihydroisobenzofuran-5-yl)ethyl)-2,8-diazaspiro[4.5]decan-1-one]: the IC50 amounted to 66.6 nM.

With `Cc1c([C@@H](O)CN2CCC3(CC2)CN(c2ccns2)C3)ccc2c1COC2=O` [Example 16], the IC50 was determined as 418 nM.

`Cc1c([C@@H](O)CN2CCC3(CC2)CCN(c2ccnc(N(C)C)n2)C3=O)ccc2c1COC2=O` [Example 43, (R)-2-(2-(dimethylamino)pyrimidin-4-yl)-8-(2-hydroxy-2-(4-methyl-1-oxo-1,3-dihydroisobenzofuran-5-yl)ethyl)-2,8-diazaspiro[4.5]decan-1-one]: the half-maximal inhibitory concentration (IC50) was determined as 521 nM. On to `Cc1c([C@@H](O)CN2CCC3(CC2)CCN(c2cccnc2)C3=O)ccc2c1COC2=O` [Example 35, (R)-8-(2-hydroxy-2-(4-methyl-1-oxo-1,3-dihydroisobenzofuran-5-yl)ethyl)-2-(pyridin-3-yl)-2,8-diazaspiro[4.5]decan-1-one], for which the IC50 worked out at 379 nM. As for `Cc1cc(N2CCCC3(CCN(C[C@H](O)c4ccc5c(c4C)COC5=O)CC3)C2=O)sn1` [Example 81, (R)-9-(2-hydroxy-2-(4-methyl-1-oxo-1,3-dihydroisobenzofuran-5-yl)ethyl)-2-(3-methylisothiazol-5-yl)-2,9-diazaspiro[5.5]undecan-1-one], the 50% inhibitory concentration (IC50) was determined as 175 nM. Take `CCc1nccc(N2CCC3(CCN(C[C@H](O)c4ccc5c(c4C)COC5=O)CC3)C2=O)n1` [Example 45, (R)-2-(2-ethylpyrimidin-4-yl)-8-(2-hydroxy-2-(4-methyl-1-oxo-1,3-dihydroisobenzofuran-5-yl)ethyl)-2,8-diazaspiro[4.5]decan-1-one]: the IC50 was 354 nM. For `CCOC(=O)c1cc(N2CCC3(CCN(C[C@H](O)c4ccc5c(c4C)COC5=O)CC3)C2=O)on1` [Example 64, (R)-ethyl 5-(8-(2-hydroxy-2-(4-methyl-1-oxo-1,3-dihydroisobenzofuran-5-yl)ethyl)-1-oxo-2,8-diazaspiro[4.5]decan-2-yl)isoxazole-3-carboxylate] the value was 241 nM.

Take `Cc1c([C@@H](O)CN2CCC3(CC2)CN(c2ccncc2)C(=O)O3)ccc2c1COC2=O` [Example 86, (R)-8-(2-hydroxy-2-(4-methyl-1-oxo-1,3-dihydroisobenzofuran-5-yl)ethyl)-3-(pyridin-4-yl)-1-oxa-3,8-diazaspiro[4.5]decan-2-one]: the IC50 came to 561 nM. In the case of `Cc1c([C@@H](O)CN2CCC3(CC2)CCN(c2cncnc2)C3=O)ccc2c1COC2=O` [Example 37, (R)-8-(2-hydroxy-2-(4-methyl-1-oxo-1,3-dihydroisobenzofuran-5-yl)ethyl)-2-(pyrimidin-5-yl)-2,8-diazaspiro[4.5]decan-1-one], the IC50 was 676 nM. For `Cc1c([C@@H](O)CN2CCC3(CC2)CN(c2ccc(=O)n(C)n2)CCO3)ccc2c1COC2=O` [Example 17, (R)-6-(9-(2-hydroxy-2-(4-methyl-1-oxo-1,3-dihydroisobenzofuran-5-yl)ethyl)-1-oxa-4,9-diazaspiro[5.5]undecan-4-yl)-2-methylpyridazin-3(2H)-one] the value was 88.3 nM; for `COc1ccc(N2CCC3(CCN(C[C@H](O)c4cc(OC)c(C#N)cn4)CC3)C2)nn1` [Example 6, (S)-6-(1-hydroxy-2-(2-(6-methoxypyridazin-3-yl)-2,8-diazaspiro[4.5]decan-8-yl)ethyl)-4-methoxynicotinonitrile], 476 nM. Regarding `Cc1c([C@@H](O)CN2CCC3(CC2)CCN(c2ccc(=O)n(C4CC4)n2)C3=O)ccc2c1COC2=O` [Example 53, (R)-2-(1-cyclopropyl-6-oxo-1,6-dihydropyridazin-3-yl)-8-(2-hydroxy-2-(4-methyl-1-oxo-1,3-dihydroisobenzofuran-5-yl)ethyl)-2,8-diazaspiro[4.5]decan-1-one], the IC50 was determined as 40.6 nM.

Regarding `COc1nccc(N2CCC3(CCN(C[C@H](O)c4ccc(-n5cnnn5)nc4C)CC3)C2=O)n1` [Example 89, (R)-8-(2-hydroxy-2-(2-methyl-6-(1H-tetrazol-1-yl)pyridin-3-yl)ethyl)-2-(2-methoxypyrimidin-4-yl)-2,8-diazaspiro[4.5]decan-1-one], the IC50 was 787 nM. Then `Cc1nc(-n2cnnn2)ccc1[C@@H](O)CN1CCC2(CC1)CCN(c1ncns1)C2=O` [Example 99, (R)-8-(2-hydroxy-2-(2-methyl-6-(1H-tetrazol-1-yl)pyridin-3-yl)ethyl)-2-(1,2,4-thiadiazol-5-yl)-2,8-diazaspiro[4.5]decan-1-one], with 242 nM.
